According to US20110172184A1, “ANTITUMOR AGENT CONTAINING 4 - [[3,5 - BIS ([…]) BENZOYL] AMINO] BENZOIC ACID” (TAIHO PHARMACEUTICAL CO., LTD., priority 2008, published 2011):

System: human liver cancer cell line JHH-7
Experiment: Antitumor effect (tumor weight T/C) on human liver cancer cell line JHH-7 transplanted into the left lateral liver lobe of nude mice
Assay type: in vivo, mouse
Settings: tumor weight on 15th day
Experimental: Sorafenib was weighed at every time of use, and a liquid for administration was prepared. […] BALE/cA Jcl-nu male nude mice (Clea Japan, Inc.) were used as the efficacy test animals.
On the 15th day after the initiation of administration, the mice were killed by bleeding under ether anesthesia, subsequently tumors formed in the left lateral liver lobe were extracted, and the weight of the tumors was measured. The tumor growth rate (%) was calculated by the formula shown below, and the T/C value of each of the drug administered groups was calculated, while the average tumor weight of the non-drug administered control group was taken as 100%. This T/C value was used as an index of the antitumor effect. The statistical significance of the single drug administered groups was determined by Welch's two-tailed test, and the statistical significance of the effect synergizing action obtained by combined use was determined by the intersection union test based on Welch's two-tailed test.
Tumor growth rate (%)=T/C×100
T: Average tumor weight of a group with administration of the test compound
C: Average tumor weight of a group without administration of the test compound
(§1) On the 11th day after the transplantation, the animals were grouped into seven animals per group, and the treatment experiment was initiated. Doxorubicin was administered such that 10 mg/kg, which is the maximum tolerated dose for a mouse, was administered one time intravenously. Sorafenib was orally administered once a day for 14 consecutive days.
as §1, with “Gemcitabine” for “Doxorubicin”, “120” for “10”, “intraperitoneally four times in total at an interval of 3 days.” for “one time intravenously.”

## CNC(=O)c1cc(Oc2ccc(NC(=O)Nc3ccc(Cl)c(C(F)(F)F)c3)cc2)ccn1 [sorafenib, N-(4-chloro-3-(trifluoromethyl)phenyl)-N′-(4-(2-(N-methylcarbamoyl)-4-pyridyloxy)phenyl)urea]
Comparative Example 1, sorafenib single drug, orally once a day for 14 days
  T/C value (tumor growth rate): 62%
Comparative Example 2, sorafenib single drug, orally once a day for 14 days
  T/C value (tumor growth rate): 60%
Pharmacological Test Example 1, sorafenib single drug, 10 mg/kg orally once a day for 14 days
  T/C value (tumor growth rate): 65%

## C[Si](C)(C)c1cc(C(=O)Nc2ccc(C(=O)O)cc2)cc([Si](C)(C)C)c1 [compound 1, 4-[[3,5-bis(trimethylsilyl)benzoyl]amino]benzoic acid]
Pharmacological Test Example 1, compound 1 single drug, 2 mg/kg orally once a day for 14 days
  T/C value (tumor growth rate): 51%

## COc1cccc2c1C(=O)c1c(O)c3c(c(O)c1C2=O)C[C@@](O)(C(=O)CO)C[C@@H]3O[C@H]1C[C@H](N)[C@H](O)[C@H](C)O1 [doxorubicin]
Comparative Example 1, doxorubicin single drug, 10 mg/kg one time intravenously
  T/C value (tumor growth rate): 70%

## Nc1ccn([C@@H]2O[C@H](CO)[C@@H](O)C2(F)F)c(=O)n1 [gemcitabine]
Comparative Example 2, gemcitabine single drug, 120 mg/kg intraperitoneally four times at an interval of 3 days
  T/C value (tumor growth rate): 47%
